{
  "source": "paper PMC11643494",
  "about": "“Structure–Activity Relationship Studies in a Series of 2-Aryloxy-N-(pyrimidin-5-yl)acetamide Inhibitors of SLACK Potassium Channels” (Molecules, 2024)",
  "target": "T1, WT human SLACK (Homo sapiens, UniProt Q5JUK3)",
  "T1 construct": "host or cells: CHO-K1",
  "T1 sequence (Q5JUK3 1-1235 isoform Q5JUK3-3)": "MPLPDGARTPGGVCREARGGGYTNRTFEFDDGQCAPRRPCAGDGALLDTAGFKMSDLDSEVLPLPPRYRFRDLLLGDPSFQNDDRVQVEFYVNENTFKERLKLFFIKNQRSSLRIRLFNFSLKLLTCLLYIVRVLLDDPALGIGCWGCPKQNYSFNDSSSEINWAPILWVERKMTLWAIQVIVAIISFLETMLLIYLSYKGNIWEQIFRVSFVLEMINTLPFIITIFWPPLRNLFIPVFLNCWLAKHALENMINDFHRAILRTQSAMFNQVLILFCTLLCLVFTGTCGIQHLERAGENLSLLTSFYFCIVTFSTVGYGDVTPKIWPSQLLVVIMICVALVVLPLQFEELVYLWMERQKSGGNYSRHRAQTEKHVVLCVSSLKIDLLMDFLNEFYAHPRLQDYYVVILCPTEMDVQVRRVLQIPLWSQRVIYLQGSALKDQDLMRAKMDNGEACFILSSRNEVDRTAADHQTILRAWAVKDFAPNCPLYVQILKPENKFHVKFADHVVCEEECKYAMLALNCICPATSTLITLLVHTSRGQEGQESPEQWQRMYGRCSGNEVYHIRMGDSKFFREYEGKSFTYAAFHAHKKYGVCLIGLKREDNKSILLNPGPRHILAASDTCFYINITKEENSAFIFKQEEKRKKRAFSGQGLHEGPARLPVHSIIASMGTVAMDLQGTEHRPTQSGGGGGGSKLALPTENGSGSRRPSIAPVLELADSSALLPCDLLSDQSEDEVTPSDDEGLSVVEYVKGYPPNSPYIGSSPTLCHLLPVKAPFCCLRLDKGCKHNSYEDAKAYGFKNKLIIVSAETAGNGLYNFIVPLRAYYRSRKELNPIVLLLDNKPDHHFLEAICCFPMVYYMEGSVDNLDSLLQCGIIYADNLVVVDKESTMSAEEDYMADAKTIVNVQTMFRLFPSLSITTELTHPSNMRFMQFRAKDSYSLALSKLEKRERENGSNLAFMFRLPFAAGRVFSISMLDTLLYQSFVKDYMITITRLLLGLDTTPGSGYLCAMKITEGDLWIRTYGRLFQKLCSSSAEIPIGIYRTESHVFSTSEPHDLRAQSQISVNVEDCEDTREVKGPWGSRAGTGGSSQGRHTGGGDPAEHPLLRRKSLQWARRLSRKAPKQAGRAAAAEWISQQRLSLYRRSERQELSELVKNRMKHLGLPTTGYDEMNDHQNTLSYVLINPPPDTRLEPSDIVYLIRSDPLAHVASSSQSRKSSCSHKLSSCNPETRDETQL",
  "assay": "Whole-cell automated patch clamp (APC) in CHO-K1 cells stably expressing WT human SLACK",
  "assay_type": "cell-based",
  "conditions": "for IC50 / WT SLACK inhibition, result in words: APC; for IC50: CHO-K1 cells stably expressing WT human SLACK, averages (n ≥ 3); for WT SLACK inhibition, result in words: concentrations 0.125 to 30 µM; for SLACK Imax: maximum inhibition at 30 µM test compound standardized to VU0606170 (set at 100%), WT human SLACK; for Fold less potent than hit 10 (SLACK inhibition): ratio of WT SLACK APC IC50 to hit 10",
  "method": "Using concentrations ranging from 0.125 to 30 µM in half-log steps, a concentration–response relationship was generated for each new analog using our APC assay in CHO-K1 cells stably expressing WT SLACK. A minimum of three cells, i.e., replicates, were collected per concentration for each analog.\nAutomated patch clamp recording was performed with a SyncroPatch 768 PE system (Nanion, Munich, Germany) as previously described. Whole-cell recordings were performed at room temperature. Cells were harvested by first washing with PBS without Mg^2+ or Ca^2+ (Gibco, Billings, MT, USA) to remove cell culture medium, followed by dissociation with TryPLE (Gibco, Billings, MT, USA). Cells were then resuspended and diluted to 200,000 cells/mL in external solution. External solution contained 105 mM NaCl, 4 mM KCl, 1 mM MgCl2, 5 mM CaCl2, 10 mM HEPES, 40 mM N-Methyl-D-glucamine chloride, titrated to pH 7.4 with NaOH and osmolarity of 300 mOsm/kg; internal solution contained 70 mM NaCl, 70 mM KF, 10 mM KCl, 5 mM EGTA, 5mM HEPES, titrated to a pH 7.2 with KOH and osmolarity of 295 mOsm/kg.\nThe APC protocol was set as following: Cells were held at […] −80 mV for 100 ms, then a ramp protocol was performed from −100 mV to 80 mV at 0.4 mV/ms, hold the cell at −80 mV for another 100 ms, then steps were performed at −20 mV, 0 mV, +20 mV, +40 mV, and +60 mV for 100 ms of each step. Whole-cell currents were measured at 0 mV and normalized to current after external buffer addition.",
  "data": [
    {"smiles": "CC(C)(Oc1ccc(Cl)cc1)C(=O)Nc1cnc(Oc2cccc(F)c2)nc1", "note": "[Analog 16]", "values": [
      {"measurement": "IC50", "result": 2100, "unit": "nM"}
    ]},
    {"smiles": "CC(C)(Oc1ccc(Cl)cc1)C(=O)Nc1cnc(Oc2cccc(Cl)c2)nc1", "note": "[Analog 19]", "values": [
      {"measurement": "IC50", "result": 1500, "unit": "nM"}
    ]},
    {"smiles": "COc1ccc(Oc2ncc(NC(=O)C(C)(C)Oc3ccc(Cl)cc3)cn2)cc1", "note": "[Analog 29]", "values": [
      {"measurement": "IC50", "result": 1800, "unit": "nM"}
    ]},
    {"smiles": "CC(C)(Oc1ccc(Cl)cc1)C(=O)Nc1cnc(Oc2ccc(Cl)cc2)nc1", "note": "[Analog 20]", "values": [
      {"measurement": "IC50", "result": 1200, "unit": "nM"}
    ]},
    {"smiles": "CC(C)(Oc1ccc(Cl)cc1)C(=O)Nc1cnc(Oc2ccc(C(N)=O)cc2)nc1", "note": "[Analog 37]", "values": [
      {"measurement": "IC50", "result": "> 10000", "unit": "nM"},
      {"measurement": "WT SLACK inhibition, result in words", "result": "only a weak inhibitor"},
      {"measurement": "SLACK Imax", "result": 110, "unit": "%"}
    ]},
    {"smiles": "Cc1ccccc1OC(C)(C)C(=O)Nc1cnc(Oc2ccccc2F)nc1", "note": "[Analog 50]", "values": [
      {"measurement": "IC50", "result": 2900, "unit": "nM"},
      {"measurement": "Fold less potent than hit 10 (SLACK inhibition)", "result": "approximately 2 fold"}
    ]},
    {"smiles": "CC(C)(Oc1ccc(Cl)cc1)C(=O)Nc1cnc(Oc2ccccc2C(F)(F)F)nc1", "note": "[Analog 24]", "values": [
      {"measurement": "IC50", "result": 1700, "unit": "nM"}
    ]},
    {"smiles": "CC(C)(Oc1ccc(Cl)cc1)C(=O)Nc1cnc(Oc2ccc(F)cc2F)nc1", "note": "[Analog 38]", "values": [
      {"measurement": "IC50", "result": 1000, "unit": "nM"},
      {"measurement": "SLACK Imax", "result": 101, "unit": "%"}
    ]},
    {"smiles": "CC(C)(Oc1ccc(Cl)cc1)C(=O)Nc1cnc(Oc2ccccc2F)nc1", "note": "[Analog 10]", "values": [
      {"measurement": "IC50", "result": 1400, "unit": "nM"}
    ]},
    {"smiles": "Cc1ccc(OC(C)(C)C(=O)Nc2cnc(Oc3ccccc3F)nc2)cc1", "note": "[Analog 52]", "values": [
      {"measurement": "IC50", "result": 7100, "unit": "nM"},
      {"measurement": "SLACK Imax", "result": 97, "unit": "%"}
    ]},
    {"smiles": "CC(C)(Oc1ccc(Cl)cc1)C(=O)Nc1cnc(Oc2ccc(S(C)(=O)=O)cc2)nc1", "note": "[Analog 36]", "values": [
      {"measurement": "IC50", "result": 1100, "unit": "nM"}
    ]},
    {"smiles": "CC(C)(Oc1ccc(Cl)cc1)C(=O)Nc1cnc(Oc2ccccc2Cl)nc1", "note": "[Analog 18]", "values": [
      {"measurement": "IC50", "result": 1200, "unit": "nM"},
      {"measurement": "SLACK Imax", "result": 97, "unit": "%"}
    ]},
    {"smiles": "CC(C)(Oc1ccccc1C(F)(F)F)C(=O)Nc1cnc(Oc2ccccc2F)nc1", "note": "[Analog 53]", "values": [
      {"measurement": "WT SLACK inhibition, result in words", "result": "inactive up to the top concentration of 30 µM"}
    ]},
    {"smiles": "CC(C)(Oc1ccc(Cl)cc1)C(=O)Nc1cnc(Oc2ccccc2)nc1", "note": "[Analog 15]", "values": [
      {"measurement": "IC50", "result": 1700, "unit": "nM"}
    ]},
    {"smiles": "CC(C)(Oc1ccc(Cl)cc1)C(=O)Nc1cnc(Oc2ccc(F)cc2)nc1", "note": "[Analog 17]", "values": [
      {"measurement": "IC50", "result": 1800, "unit": "nM"},
      {"measurement": "SLACK Imax", "result": 102, "unit": "%"}
    ]},
    {"smiles": "CC(C)(Oc1ccc(Cl)cc1)C(=O)Nc1cnc(Oc2ccccc2F)c(C#N)c1", "note": "[Analog 87]", "values": [
      {"measurement": "IC50", "result": 1800, "unit": "nM"}
    ]},
    {"smiles": "CC(C)(Oc1ccc(OC(F)(F)F)cc1)C(=O)Nc1cnc(Oc2ccccc2F)nc1", "note": "[Analog 58]", "values": [
      {"measurement": "IC50", "result": "> 10000", "unit": "nM"},
      {"measurement": "WT SLACK inhibition, result in words", "result": "only weak inhibitors"},
      {"measurement": "SLACK Imax", "result": 104, "unit": "%"}
    ]},
    {"smiles": "CC(C)(Oc1ccc(Cl)cc1)C(=O)Nc1cnc(Oc2cc(F)ccc2F)nc1", "note": "[Analog 39]", "values": [
      {"measurement": "IC50", "result": 1300, "unit": "nM"},
      {"measurement": "SLACK Imax", "result": 101, "unit": "%"}
    ]},
    {"smiles": "Cc1ccc(Oc2ncc(NC(=O)C(C)(C)Oc3ccc(Cl)cc3)cn2)cc1", "note": "[Analog 23]", "values": [
      {"measurement": "IC50", "result": 1700, "unit": "nM"}
    ]},
    {"smiles": "Cc1ccccc1Oc1ncc(NC(=O)C(C)(C)Oc2ccc(Cl)cc2)cn1", "note": "[Analog 21]", "values": [
      {"measurement": "IC50", "result": 2900, "unit": "nM"}
    ]},
    {"smiles": "CC(C)(Oc1ccc(C(F)(F)F)cc1)C(=O)Nc1cnc(Oc2ccccc2F)nc1", "note": "[Analog 55]", "values": [
      {"measurement": "IC50", "result": 2800, "unit": "nM"},
      {"measurement": "SLACK Imax", "result": 101, "unit": "%"},
      {"measurement": "Fold less potent than hit 10 (SLACK inhibition)", "result": "approximately 2 fold"}
    ]},
    {"smiles": "CC(C)(Oc1ccc(Cl)cc1)C(=O)Nc1cnc(Oc2ccccc2F)cn1", "note": "[Analog 90]", "values": [
      {"measurement": "IC50", "result": "> 10000", "unit": "nM"},
      {"measurement": "WT SLACK inhibition, result in words", "result": "only weak inhibitors"},
      {"measurement": "SLACK Imax", "result": 50, "unit": "%"}
    ]},
    {"smiles": "Cc1cccc(OC(C)(C)C(=O)Nc2cnc(Oc3ccccc3F)nc2)c1", "note": "[Analog 51]", "values": [
      {"measurement": "WT SLACK inhibition, result in words", "result": "inactive up to the top concentration of 30 µM"}
    ]},
    {"smiles": "CC(C)(Oc1ccc(C(N)=O)cc1)C(=O)Nc1cnc(Oc2ccccc2F)nc1", "note": "[Analog 61]", "values": [
      {"measurement": "WT SLACK inhibition, result in words", "result": "inactive up to the top concentration of 30 µM"}
    ]},
    {"smiles": "CC(C)(Oc1ccc(Cl)cc1)C(=O)Nc1cnc(Oc2ccc(OC(F)(F)F)cc2)nc1", "note": "[Analog 32]", "values": [
      {"measurement": "IC50", "result": 1900, "unit": "nM"}
    ]},
    {"smiles": "O=C(Nc1cnc(Oc2ccccc2F)nc1)C(F)(F)Oc1ccc(Cl)cc1", "note": "[Analog 79]", "values": [
      {"measurement": "IC50", "result": 2100, "unit": "nM"}
    ]},
    {"smiles": "CC(C)(Oc1ccc(S(F)(F)(F)(F)F)cc1)C(=O)Nc1cnc(Oc2ccccc2F)nc1", "note": "[Analog 62]", "values": [
      {"measurement": "IC50", "result": 4100, "unit": "nM"}
    ]},
    {"smiles": "CC(C)(Oc1ccccc1)C(=O)Nc1cnc(Oc2ccccc2F)nc1", "note": "[Analog 44]", "values": [
      {"measurement": "IC50", "result": "> 10000", "unit": "nM"},
      {"measurement": "WT SLACK inhibition, result in words", "result": "only weakly active"},
      {"measurement": "SLACK Imax", "result": 66, "unit": "%"}
    ]}
  ]
}
